The data set deals with CCRIS mutagenicity, Ames/micronucleus/aberration tests. The data set can be described thus: CCRIS mutagenicity studies.
The mark [1] stands for this setting: Test System: AMES SALMONELLA TYPHIMURIUM, Strain/Indicator: TA98, Metabolic Activation: NONE, Method: PREINCUBATION
Where [2] appears, read: Test System: AMES SALMONELLA TYPHIMURIUM, Strain/Indicator: TA98, Metabolic Activation: RAT, LIVER, S-9, AROCLOR 1254, Method: PREINCUBATION
[3] abbreviates: Test System: AMES SALMONELLA TYPHIMURIUM, Strain/Indicator: TA100, Metabolic Activation: NONE, Method: PREINCUBATION
The mark [4] stands for this setting: Test System: AMES SALMONELLA TYPHIMURIUM, Strain/Indicator: TA100, Metabolic Activation: RAT, LIVER, S-9, AROCLOR 1254, Method: PREINCUBATION
Setting [5] is: Test System: MOUSE LYMPHOMA, Strain/Indicator: L5178Y (TK+/TK-), Metabolic Activation: NONE, Method: SUSPENSION/PLATE.
Where [6] appears, read: Test System: AMES SALMONELLA TYPHIMURIUM, Strain/Indicator: TA98, Metabolic Activation: NONE, Method: STANDARD PLATE.
Where [7] appears, read: Test System: AMES SALMONELLA TYPHIMURIUM, Strain/Indicator: TA100, Metabolic Activation: NONE, Method: STANDARD PLATE.

Molecules are shown by their SMILES. Calls of active or inactive are those of the source. The rule behind the calls is not given here.

This passage reports mutagenic call results from PubChem BioAssay AID1259407 (Chemical Carcinogenesis Research Information System (CCRIS), 2018).

As to `C=C(C)[C@H]1CC=C(C)C(=O)C1`, the mutagenic call was “inactive; negative” (Test System: AMES SALMONELLA TYPHIMURIUM, Strain/Indicator: TA98, Metabolic Activation: HAMSTER, LIVER, S-9, AROCLOR 1254, Method: PREINCUBATION); “inactive; negative” under setting [1]; “inactive; negative” under setting [2]; “inactive; negative” (Test System: AMES SALMONELLA TYPHIMURIUM, Strain/Indicator: TA100, Metabolic Activation: HAMSTER, LIVER, S-9, AROCLOR 1254, Method: PREINCUBATION); “inactive; negative” under setting [3]; “inactive; negative” under setting [4]. For the same compound, the mutagenic call is “inactive; negative” (Test System: AMES SALMONELLA TYPHIMURIUM, Strain/Indicator: TA1535, Metabolic Activation: HAMSTER, LIVER, S-9, AROCLOR 1254, Method: PREINCUBATION); “inactive; negative” (Test System: AMES SALMONELLA TYPHIMURIUM, Strain/Indicator: TA1535, Metabolic Activation: NONE, Method: PREINCUBATION); “inactive; negative” (Test System: AMES SALMONELLA TYPHIMURIUM, Strain/Indicator: TA1535, Metabolic Activation: RAT, LIVER, S-9, AROCLOR 1254, Method: PREINCUBATION); “inactive; negative” (Test System: AMES SALMONELLA TYPHIMURIUM, Strain/Indicator: TA1537, Metabolic Activation: HAMSTER, LIVER, S-9, AROCLOR 1254, Method: PREINCUBATION); “inactive; negative” (Test System: AMES SALMONELLA TYPHIMURIUM, Strain/Indicator: TA1537, Metabolic Activation: NONE, Method: PREINCUBATION); “inactive; negative” (Test System: AMES SALMONELLA TYPHIMURIUM, Strain/Indicator: TA1537, Metabolic Activation: RAT, LIVER, S-9, AROCLOR 1254, Method: PREINCUBATION).
In the case of `C=C(C)C(=O)OCCOCCOCCOCCOC(=O)C(=C)C`, under setting [5], the mutagenic call was “active; positive”.
Regarding `CCC[C@H]1O[C@H]1c1ccccc1`, the mutagenic call reads like this: (Test System: AMES SALMONELLA TYPHIMURIUM, Strain/Indicator: TA98, Metabolic Activation: NONE, Method: PREINCUBATION (PHOSPHATE-BUFFERED KCL OR SOLUTE-FREE WATER MEDIA)) “inactive; negative”; (Test System: AMES SALMONELLA TYPHIMURIUM, Strain/Indicator: TA100, Metabolic Activation: NONE, Method: PREINCUBATION (PHOSPHATE-BUFFERED KCL OR SOLUTE-FREE WATER MEDIA)) “inactive; negative”; (Test System: AMES SALMONELLA TYPHIMURIUM, Strain/Indicator: TA104, Metabolic Activation: NONE, Method: PREINCUBATION (PHOSPHATE-BUFFERED KCL OR SOLUTE-FREE WATER MEDIA)) “inactive; negative”.
Consider `COc1ccc(-c2coc3cc(O)cc(O)c3c2=O)cc1`, for which the mutagenic call is “inactive; negative” (Test System: AMES SALMONELLA TYPHIMURIUM, Strain/Indicator: TA98, Metabolic Activation: HAMSTER, LIVER, S-9, AROCLOR 1254, Method: STANDARD PLATE); “inactive; negative” under setting [6]; “inactive; negative” (Test System: AMES SALMONELLA TYPHIMURIUM, Strain/Indicator: TA98, Metabolic Activation: RAT, LIVER, S-9, AROCLOR 1254, Method: STANDARD PLATE); “inactive; negative” (Test System: AMES SALMONELLA TYPHIMURIUM, Strain/Indicator: TA100, Metabolic Activation: HAMSTER, LIVER, S-9, AROCLOR 1254, Method: STANDARD PLATE); “inactive; negative” under setting [7]; “inactive; negative” (Test System: AMES SALMONELLA TYPHIMURIUM, Strain/Indicator: TA100, Metabolic Activation: RAT, LIVER, S-9, AROCLOR 1254, Method: STANDARD PLATE). The mutagenic call was “inactive; negative” (Test System: AMES SALMONELLA TYPHIMURIUM, Strain/Indicator: TA1535, Metabolic Activation: HAMSTER, LIVER, S-9, AROCLOR 1254, Method: STANDARD PLATE); “inactive; negative” (Test System: AMES SALMONELLA TYPHIMURIUM, Strain/Indicator: TA1535, Metabolic Activation: NONE, Method: STANDARD PLATE); “inactive; negative” (Test System: AMES SALMONELLA TYPHIMURIUM, Strain/Indicator: TA1535, Metabolic Activation: RAT, LIVER, S-9, AROCLOR 1254, Method: STANDARD PLATE); “inactive; negative” (Test System: AMES SALMONELLA TYPHIMURIUM, Strain/Indicator: TA1537, Metabolic Activation: HAMSTER, LIVER, S-9, AROCLOR 1254, Method: STANDARD PLATE); “inactive; negative” (Test System: AMES SALMONELLA TYPHIMURIUM, Strain/Indicator: TA1537, Metabolic Activation: NONE, Method: STANDARD PLATE); “inactive; negative” (Test System: AMES SALMONELLA TYPHIMURIUM, Strain/Indicator: TA1537, Metabolic Activation: RAT, LIVER, S-9, AROCLOR 1254, Method: STANDARD PLATE). Moreover, the mutagenic call by setting is: (Test System: AMES SALMONELLA TYPHIMURIUM, Strain/Indicator: TA1538, Metabolic Activation: HAMSTER, LIVER, S-9, AROCLOR 1254, Method: STANDARD PLATE) “inactive; negative”; (Test System: AMES SALMONELLA TYPHIMURIUM, Strain/Indicator: TA1538, Metabolic Activation: NONE, Method: STANDARD PLATE) “inactive; negative”; (Test System: AMES SALMONELLA TYPHIMURIUM, Strain/Indicator: TA1538, Metabolic Activation: RAT, LIVER, S-9, AROCLOR 1254, Method: STANDARD PLATE) “inactive; negative”; under setting [5], “active; positive. reevaluation of results: inconclusive”; (Test System: MOUSE LYMPHOMA, Strain/Indicator: L5178Y (TK+/TK-), Metabolic Activation: RAT, LIVER, S-9, AROCLOR 1254, Method: SUSPENSION/PLATE) “active; positive. reevaluation of results: positive”; (Test System: SYRIAN HAMSTER EMBRYO CELLS, Strain/Indicator: HPRT/6-THIOGUANINE, Metabolic Activation: NONE, Method: PLATE) “inactive; negative”.
Turning to `COc1cc(C)cc2c(O)c(-c3c(C)cc4c(O)ccc(O)c4c3OC)cc(O)c12`, the mutagenic call reads like this: under setting [1], “inactive; negative”; under setting [2], “inactive; negative”; under setting [3], “inactive; negative”; under setting [4], “inactive; negative”.
On to `Nc1nc(Cl)nc2c1ncn2[C@H]1C[C@H](O)[C@@H](CO)O1`, for which the mutagenic call (End Point: In vivo chromosomal aberrations, Test System: Bone marrow cells, Species: Mouse, Strain/Sex: Balb/C/Male and female, Route: Intraperitoneal) is “inactive; negative”.
`Cc1nc2ccc3ccc4ccc(O)cc4c3c2n1C`: the mutagenic call (Test System: AMES SALMONELLA TYPHIMURIUM, Strain/Indicator: TA98, Metabolic Activation: RAT, LIVER, S-9, AROCLOR, Method: STANDARD PLATE) was “active; positive”.
As to `COc1cccc2c1C(=O)c1c(O)c3c(c(O)c1C2=O)C[C@@](O)(C(=O)CO)CC3O[C@H]1C[C@H](N(C)C)[C@H](O)[C@H](C)O1` (stereo partly drawn), the mutagenic call is, setting by setting: (Test System: AMES SALMONELLA TYPHIMURIUM, Strain/Indicator: TA98, Metabolic Activation: NONE) “inactive; negative”; (Test System: AMES SALMONELLA TYPHIMURIUM, Strain/Indicator: TA98, Metabolic Activation: RAT, LIVER, S-9, AROCLOR 1254) “inactive; negative”; (Test System: AMES SALMONELLA TYPHIMURIUM, Strain/Indicator: TA102, Metabolic Activation: NONE, Method: STANDARD PLATE) “active; positive”; (Test System: UDS RAT HEPATOCYTES, Strain/Indicator: THY INCORP, Metabolic Activation: NONE, Method: AUTOMATIC COLONY COUNTER) “active; positive”.
As to `O=C(O)C1=NN(c2ccc(S(=O)(=O)O)cc2)C(=O)C1N=Nc1ccc(S(=O)(=O)O)cc1` (stereo not drawn), the mutagenic call is “inactive; negative” under setting [6]; “inactive; negative” (Test System: AMES SALMONELLA TYPHIMURIUM, Strain/Indicator: TA98, Metabolic Activation: RAT LIVER S-9, AROCLOR 1254, Method: STANDARD PLATE); “inactive; negative” under setting [7]; “inactive; negative” (Test System: AMES SALMONELLA TYPHIMURIUM, Strain/Indicator: TA100, Metabolic Activation: RAT LIVER S-9, AROCLOR 1254, Method: STANDARD PLATE); “inactive; negative” (Test System: Mouse lymphoma, Strain/Indicator: L5178Y (tk+/tk-), Metabolic Activation: None, Method: Suspension/plate); “inactive; negative” (Test System: Mouse lymphoma, Strain/Indicator: L5178Y (tk+/tk-), Metabolic Activation: Rat, Liver, S-9, Aroclor 1254, Method: Suspension/plate).
Regarding `CCON(OC(C)=O)C(=O)c1ccccc1`, the mutagenic call under setting [6] is “active; positive”; the mutagenic call under setting [7] is “active; positive”; the mutagenic call (Test System: AMES SALMONELLA TYPHIMURIUM, Strain/Indicator: TA100, Metabolic Activation: RAT, S-9, AROCLOR, Method: STANDARD PLATE) was “active; positive”.
